Patent US20180244611A1, “Modulators of the Cystic Fibrosis Transmembrane Conductance Regulator Protein and Methods of Use” (AbbVie S.à.r.l., priority 2017, published 2018)

Assays:
F508delCFTR [1] = target: T1, F508delCFTR (Homo sapiens, UniProt P13569, DEL508-508); assay: Cell Surface Expression-Horse Radish Peroxidase (CSE-HRP) assay, test compound without co-corrector; type: cell-based; conditions: for Emax: maximum at any tested concentration, without co-corrector; for EC50: test compound without co-corrector;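 for Emax: percent of on-plate 2 µM positive control corrector response over DMSO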
T1 construct: expressed in transfected cells; host or cells: CFBE41o- human lung-derived epithelial cells (CFBE41o-F508delCFTR-HRP), doxycycline-inducible
T1 sequence (P13569 with tags, fused parts or gaps DEL508-508): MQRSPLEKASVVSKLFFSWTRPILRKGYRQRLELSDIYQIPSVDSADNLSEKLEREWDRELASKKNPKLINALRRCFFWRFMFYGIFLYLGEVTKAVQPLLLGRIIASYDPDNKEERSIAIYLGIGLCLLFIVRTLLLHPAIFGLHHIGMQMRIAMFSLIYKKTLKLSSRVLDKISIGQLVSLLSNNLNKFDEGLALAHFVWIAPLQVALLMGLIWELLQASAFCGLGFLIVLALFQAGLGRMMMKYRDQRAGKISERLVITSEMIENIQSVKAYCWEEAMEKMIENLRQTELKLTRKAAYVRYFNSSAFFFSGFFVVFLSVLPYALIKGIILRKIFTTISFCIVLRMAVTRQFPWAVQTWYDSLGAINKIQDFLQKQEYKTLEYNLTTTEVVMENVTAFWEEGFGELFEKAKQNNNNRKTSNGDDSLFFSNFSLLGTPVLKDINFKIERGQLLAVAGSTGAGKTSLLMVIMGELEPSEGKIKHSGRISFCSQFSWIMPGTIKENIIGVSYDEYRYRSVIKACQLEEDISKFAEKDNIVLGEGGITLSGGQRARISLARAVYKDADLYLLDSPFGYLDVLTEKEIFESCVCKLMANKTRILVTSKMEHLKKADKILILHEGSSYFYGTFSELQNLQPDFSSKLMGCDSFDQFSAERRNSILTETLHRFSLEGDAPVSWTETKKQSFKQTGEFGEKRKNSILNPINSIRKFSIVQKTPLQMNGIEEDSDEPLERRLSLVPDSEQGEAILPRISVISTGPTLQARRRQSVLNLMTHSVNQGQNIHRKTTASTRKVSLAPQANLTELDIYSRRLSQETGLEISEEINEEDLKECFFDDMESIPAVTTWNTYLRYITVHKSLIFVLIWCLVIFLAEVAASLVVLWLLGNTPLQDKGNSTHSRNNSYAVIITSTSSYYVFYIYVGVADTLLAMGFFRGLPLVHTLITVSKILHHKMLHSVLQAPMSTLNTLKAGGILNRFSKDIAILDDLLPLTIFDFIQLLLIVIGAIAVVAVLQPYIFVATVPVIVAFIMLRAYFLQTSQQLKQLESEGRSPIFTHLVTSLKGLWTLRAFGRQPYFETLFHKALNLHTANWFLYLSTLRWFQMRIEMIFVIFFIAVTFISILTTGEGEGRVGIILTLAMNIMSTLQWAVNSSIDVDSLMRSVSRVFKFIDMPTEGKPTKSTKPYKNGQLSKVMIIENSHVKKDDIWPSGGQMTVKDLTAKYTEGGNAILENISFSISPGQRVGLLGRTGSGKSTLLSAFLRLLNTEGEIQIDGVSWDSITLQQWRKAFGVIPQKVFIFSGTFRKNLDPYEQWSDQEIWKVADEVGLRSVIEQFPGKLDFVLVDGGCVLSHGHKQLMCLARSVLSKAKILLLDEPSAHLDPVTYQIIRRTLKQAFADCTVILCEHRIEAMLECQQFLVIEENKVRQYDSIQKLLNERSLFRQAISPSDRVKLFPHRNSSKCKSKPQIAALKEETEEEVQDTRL
Procedure, shortened: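 CFBE41o- cells expressing F508delCFTR with HRP in the fourth exofacial loop, induced with 0.5 μg/mL doxycycline for 72 h at 37° C, then exposed to compound alone for 18-24 h at 33° C, 8-point 3-fold series from 20 μM. Surface HRP read by luminol luminescence, normalized to positive corrector control versus DMSO; EC50 from variable-slope sigmoidal fit of three replicate plates.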

F508delCFTR [2] = target: T1, F508delCFTR; assay: Cell Surface Expression-Horse Radish Peroxidase (CSE-HRP) assay, test compound with co-corrector; type: cell-based; conditions: for Maximum % activity (with co-corrector): maximum at any tested concentration;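 for Maximum % activity (with co-corrector): percent of 2 µM positive control corrector over DMSO; co-corrector is that same compound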
Procedure, shortened: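 CFBE41o- cells expressing F508delCFTR with HRP in the fourth exofacial loop, induced with 0.5 μg/mL doxycycline for 72 h, then treated 18-24 h at 33° C. with compound (8 points, top 20 μM, 3-fold) plus 2 μM co-corrector. Surface HRP read by luminol luminescence; activity normalised to positive control, EC50 from variable-slope sigmoidal fit.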

[3] = normalized to positive control, with 2 μM co-corrector
[4] = normalized to on-plate positive control
[5] = CSE-HRP assay, test compound with 2 μM co-corrector
[6] = normalized to on-plate positive control, with 2 μM co-corrector

| Emax (F508delCFTR [1]; normalized to positive control) [%] | EC50 (F508delCFTR [1]) [µM] | Maximum % activity (with co-corrector) (F508delCFTR [2]; [3]) | EC50 (F508delCFTR [2]; with 2 μM co-corrector) [µM] | EC50 (F508delCFTR [1]; CSE-HRP assay) [µM] | Emax (F508delCFTR [1]; [4]) [%] | EC50 (F508delCFTR [2]; [5]) [µM] | Maximum % activity (with co-corrector) (F508delCFTR [2]; [6]) | Compound |
| --- | --- | --- | --- | --- | --- | --- | --- | --- |
| < 50 | ≥ 10 | + (<150) | ≥ 10 |  |  |  |  | COc1cccc2c1CCC2C(=O)NS(=O)(=O)c1ncccc1C(=O)N(C)C (stereo not shown) [III-82] |
| < 50 | ≥ 10 | + (<150) | ≥ 10 |  |  |  |  | COc1cccc2c1CCC2C(=O)NS(=O)(=O)c1cccnc1C#N (stereo not shown) [III-83] |
| < 50 | ≥ 10 | + (<150) | ≥ 10 |  |  |  |  | COc1cccc2c1CCC2C(=O)NS(=O)(=O)c1ccccn1 (stereo not shown) [III-84] |
| < 50 | ≥ 10 | ++ (≥150 and <350) | 3 to 10 |  |  |  |  | COc1ccc(-c2cccc3c2CCC3C(=O)NS(=O)(=O)c2ccccc2C)cn1 (stereo not shown) [III-85] |
| 50 to 150 | 3 to 10 | ++ (≥150 and <350) | < 3 |  |  |  |  | Cc1ccccc1S(=O)(=O)NC(=O)C1CCc2c(-c3ccc(N4CCCCC4)nc3)cccc21 (stereo not shown) [III-86] |
| < 50 | ≥ 10 | + (<150) | ≥ 10 |  |  |  |  | Cc1ccccc1S(=O)(=O)NC(=O)C1CCc2c(-c3ccc(N4CCN(C)CC4)nc3)cccc21 (stereo not shown) [III-87] |
| < 50 | ≥ 10 | + (<150) | ≥ 10 |  |  |  |  | Cc1ccccc1S(=O)(=O)NC(=O)C1CCc2c(-c3cccnc3C)cccc21 (stereo not shown) [III-88] |
| < 50 | ≥ 10 | ++ (≥150 and <350) | 3 to 10 |  |  |  |  | Cc1ccccc1S(=O)(=O)NC(=O)C1CCc2c(-c3ccc(F)nc3)cccc21 (stereo not shown) [III-89] |
| < 50 | ≥ 10 | + (<150) | ≥ 10 |  |  |  |  | Cc1ccccc1S(=O)(=O)NC(=O)C1CCc2c(-c3ccc(N(C)C)nc3)cccc21 (stereo not shown) [III-90] |
|  |  |  |  | ≥ 10 | < 50 | ≥ 10 | + (<150) | Cc1ccccc1S(=O)(=O)NC(=O)C1CCc2c(-c3cncc(F)c3)cccc21 (stereo not shown) [III-91] |
|  |  |  |  | ≥ 10 | < 50 | ≥ 10 | + (<150) | Cc1cncc(-c2cccc3c2CCC3C(=O)NS(=O)(=O)c2ccccc2C)c1 (stereo not shown) [III-92] |
|  |  |  |  | ≥ 10 | < 50 | 3 to 10 | ++ (≥150 and <350) | Cc1ccccc1S(=O)(=O)NC(=O)C1CCc2c(-c3ccnc(F)c3)cccc21 (stereo not shown) [III-93] |
|  |  |  |  | ≥ 10 | < 50 | 3 to 10 | ++ (≥150 and <350) | Cc1ccccc1S(=O)(=O)NC(=O)C1CCc2c(-c3ccncc3F)cccc21 (stereo not shown) [III-94] |
|  |  |  |  | ≥ 10 | < 50 | ≥ 10 | + (<150) | Cc1cnccc1-c1cccc2c1CCC2C(=O)NS(=O)(=O)c1ccccc1C (stereo not shown) [III-95] |
|  |  |  |  | ≥ 10 | < 50 | ≥ 10 | + (<150) | Cc1cc(-c2cccc3c2CCC3C(=O)NS(=O)(=O)c2ccccc2C)ccn1 (stereo not shown) [III-96] |
|  |  |  |  | ≥ 10 | < 50 | ≥ 10 | + (<150) | Cc1ccccc1S(=O)(=O)NC(=O)C1CCc2c(-c3cn[nH]c3)cccc21 (stereo not shown) [III-97] |
|  |  |  |  | ≥ 10 | < 50 | ≥ 10 | + (<150) | Cc1ccccc1S(=O)(=O)NC(=O)C1CCc2c(-c3ccn[nH]3)cccc21 (stereo not shown) [III-98] |
|  |  |  |  | 3 to 10 | 50 to 150 | 3 to 10 | +++ (≥350) | Cc1ccccc1S(=O)(=O)NC(=O)C1CCc2c(-c3ccsc3)cccc21 (stereo not shown) [III-99] |
|  |  |  |  | ≥ 10 | < 50 | 3 to 10 | + (<150) | Cc1ccccc1S(=O)(=O)NC(=O)C1CCc2c(-c3ccc(N4CCOCC4)nc3)cccc21 (stereo not shown) [III-100] |
